From PubChem BioAssay AID1845201 (Molecular Pharmacology Branch, DTP, NCI, 2023)
Several values for one entry are separate records, joined by “and”; a condition that tells them apart may be missing. Equal values may be shown once.

System: COR L88 complex tumor spheroid viability
Assay: Anticancer human tumor COR L88 cell line growth inhibition;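 further: compound exposure lasted 7 days before viability readout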;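 on viability, T/C: percent of DMSO vehicle-treated spheroids = 100%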
Details: for viability, T/C: stronger effect = lower value
Summary of the method: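 Complex tumor spheroids combined malignant cells with endothelial cells and mesenchymal stem cells. DNA-damaging drugs and DNA repair inhibitors were tested alone and in combination, at half-log dilutions down from clinical Cmax (top 10 microM if Cmax unknown), 0.25% DMSO final.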

[1] = curve of first compound, second compound 0.003 µM
[2] = curve of first compound, second compound 0.00949 µM
[3] = curve of first compound, second compound 0.03 µM
[4] = curve of first compound, second compound 0.0949 µM
[5] = curve of first compound, second compound 0.3 µM
[6] = second compound 0.003 µM, first compound 0.0316 µM
[7] = second compound 0.003 µM, first compound 0.1 µM
[8] = second compound 0.003 µM, first compound 0.316 µM
[9] = second compound 0.003 µM, first compound 1 µM
[10] = second compound 0.003 µM, first compound 3.16 µM
[11] = second compound 0.003 µM, first compound 10 µM
[12] = second compound 0.00949 µM, first compound 0.0316 µM
[13] = second compound 0.00949 µM, first compound 0.1 µM
[14] = second compound 0.00949 µM, first compound 0.316 µM
[15] = second compound 0.00949 µM, first compound 1 µM
[16] = second compound 0.00949 µM, first compound 3.16 µM
[17] = second compound 0.00949 µM, first compound 10 µM
[18] = second compound 0.03 µM, first compound 0.0316 µM
[19] = second compound 0.03 µM, first compound 0.1 µM
[20] = second compound 0.03 µM, first compound 0.316 µM
[21] = second compound 0.03 µM, first compound 1 µM
[22] = second compound 0.03 µM, first compound 3.16 µM
[23] = second compound 0.03 µM, first compound 10 µM
[24] = second compound 0.0949 µM, first compound 0.0316 µM
[25] = second compound 0.0949 µM, first compound 0.1 µM
[26] = second compound 0.0949 µM, first compound 0.316 µM
[27] = second compound 0.0949 µM, first compound 1 µM
[28] = second compound 0.0949 µM, first compound 3.16 µM
[29] = second compound 0.0949 µM, first compound 10 µM
[30] = second compound 0.3 µM, first compound 0.0316 µM
[31] = second compound 0.3 µM, first compound 0.1 µM
[32] = second compound 0.3 µM, first compound 0.316 µM
[33] = second compound 0.3 µM, first compound 1 µM
[34] = second compound 0.3 µM, first compound 3.16 µM
[35] = second compound 0.3 µM, first compound 10 µM

SMILES: O=C(c1cc(Cc2n[nH]c(=O)c3ccccc23)ccc1F)N1CCN(C(=O)C2CC2)CC1 + CC[C@@]1(O)C(=O)OCc2c1cc1n(c2=O)Cc2cc3c(CN(C)C)c(O)ccc3nc2-1
- IC50 [1]: 9730 nM
- IC50 [2]: 9850 nM
- IC50 [3]: 282 nM
- IC50 [4]: < 94.9 nM
- IC50 [5]: < 94.9 nM
- viability, T/C (second compound 0.003 µM, first compound 0.0949 µM): 89%
- viability, T/C (second compound 0.003 µM, first compound 0.3 µM): 85.6%
- viability, T/C (second compound 0.003 µM, first compound 0.949 µM): 85.3%
- viability, T/C (second compound 0.003 µM, first compound 3 µM): 66%
- viability, T/C (second compound 0.003 µM, first compound 9.49 µM): 51.3%
- viability, T/C (second compound 0.003 µM, first compound 30 µM): 45.6%
- viability, T/C (second compound 0.00949 µM, first compound 0.0949 µM): 62.3%
- viability, T/C (second compound 0.00949 µM, first compound 0.3 µM): 56.2%
- viability, T/C (second compound 0.00949 µM, first compound 0.949 µM): 57.3%
- viability, T/C (second compound 0.00949 µM, first compound 3 µM): 57.5%
- viability, T/C (second compound 0.00949 µM, first compound 9.49 µM): 47.3%
- viability, T/C (second compound 0.00949 µM, first compound 30 µM): 45.8%
- viability, T/C (second compound 0.03 µM, first compound 0.0949 µM): 51.3%
- viability, T/C (second compound 0.03 µM, first compound 0.3 µM): 50.1%
- viability, T/C (second compound 0.03 µM, first compound 0.949 µM): 48.3%
- viability, T/C (second compound 0.03 µM, first compound 3 µM): 48%
- viability, T/C (second compound 0.03 µM, first compound 9.49 µM): 45.9%
- viability, T/C (second compound 0.03 µM, first compound 30 µM): 45.8%
- viability, T/C (second compound 0.0949 µM, first compound 0.0949 µM): 45.7%
- viability, T/C (second compound 0.0949 µM, first compound 0.3 µM): 44%
- viability, T/C (second compound 0.0949 µM, first compound 0.949 µM): 44.3%
- viability, T/C (second compound 0.0949 µM, first compound 3 µM): 41.9%
- viability, T/C (second compound 0.0949 µM, first compound 9.49 µM): 40.3%
- viability, T/C (second compound 0.0949 µM, first compound 30 µM): 33%
- viability, T/C (second compound 0.3 µM, first compound 0.0949 µM): 41.4%
- viability, T/C (second compound 0.3 µM, first compound 0.3 µM): 41%
- viability, T/C (second compound 0.3 µM, first compound 0.949 µM): 39%
- viability, T/C (second compound 0.3 µM, first compound 3 µM): 32.6%
- viability, T/C (second compound 0.3 µM, first compound 9.49 µM): 24.4%
- viability, T/C (second compound 0.3 µM, first compound 30 µM): 18.5%

SMILES: CC1COCCN1c1cc(-c2ccnn2C)c2ccnc(-c3ccn[nH]3)c2n1 (stereo unspecified)
- viability, T/C (compound 0.0316 µM): 94.4% and 93.6% and 97.8%
- viability, T/C (compound 0.1 µM): 59.7% and 70.8% and 77%
- viability, T/C (compound 0.316 µM): 34.2% and 52% and 53.1%
- viability, T/C (compound 1 µM): 22.5% and 30.1% and 36%
- viability, T/C (compound 3.16 µM): 9.11% and 13.8% and 14.6%
- viability, T/C (compound 10 µM): 3.91% and 5.8% and 5.02%
- IC50 (curve of compound): 159 nM and 319 nM and 403 nM

SMILES: O=C(c1cc(Cc2n[nH]c(=O)c3ccccc23)ccc1F)N1CCN(C(=O)C2CC2)CC1
- viability, T/C (compound 0.0949 µM): 97.2% and 87.7% and 107%
- viability, T/C (compound 0.3 µM): 98.2% and 101% and 103%
- viability, T/C (compound 0.949 µM): 101% and 97.9% and 94.2%
- viability, T/C (compound 3 µM): 85.7% and 87.9% and 90.7%
- viability, T/C (compound 9.49 µM): 61.5% and 67.3% and 70.3%
- viability, T/C (compound 30 µM): 49.8% and 50.5% and 58.2%
- IC50 (curve of compound): > 30000 nM

SMILES: CC1COCCN1c1cc(-c2ccnn2C)c2ccnc(-c3ccn[nH]3)c2n1 (stereo unspecified) + CC[C@@]1(O)C(=O)OCc2c1cc1n(c2=O)Cc2cc3c(CN(C)C)c(O)ccc3nc2-1
- IC50 [1]: 150 nM
- IC50 [2]: < 31.6 nM
- IC50 [3]: < 31.6 nM
- IC50 [4]: < 31.6 nM
- IC50 [5]: < 31.6 nM
- viability, T/C [6]: 72.1%
- viability, T/C [7]: 53.5%
- viability, T/C [8]: 41.7%
- viability, T/C [9]: 25.8%
- viability, T/C [10]: 16.1%
- viability, T/C [11]: 4.41%
- viability, T/C [12]: 37.8%
- viability, T/C [13]: 35.5%
- viability, T/C [14]: 27.7%
- viability, T/C [15]: 17.1%
- viability, T/C [16]: 7.44%
- viability, T/C [17]: 3.34%
- viability, T/C [18]: 26.1%
- viability, T/C [19]: 23%
- viability, T/C [20]: 16.6%
- viability, T/C [21]: 10.1%
- viability, T/C [22]: 5.31%
- viability, T/C [23]: 2.97%
- viability, T/C [24]: 15.2%
- viability, T/C [25]: 12.2%
- viability, T/C [26]: 8.67%
- viability, T/C [27]: 5.76%
- viability, T/C [28]: 2.87%
- viability, T/C [29]: 1.98%
- viability, T/C [30]: 6.79%
- viability, T/C [31]: 6.02%
- viability, T/C [32]: 5.21%
- viability, T/C [33]: 3.2%
- viability, T/C [34]: 1.82%
- viability, T/C [35]: 1.1%

SMILES: COc1ccc([C@@H](O)c2cc(-c3ncnc4cc(N5CCOCC5)ccc34)c(F)cc2Cl)nn1 + CC[C@@]1(O)C(=O)OCc2c1cc1n(c2=O)Cc2cc3c(CN(C)C)c(O)ccc3nc2-1
- IC50 [1]: 3180 nM
- IC50 [2]: 4000 nM
- IC50 [3]: 98.3 nM
- IC50 [4]: 122 nM
- IC50 [5]: 132 nM
- viability, T/C [6]: 96.3%
- viability, T/C [7]: 101%
- viability, T/C [8]: 94.2%
- viability, T/C [9]: 71.8%
- viability, T/C [10]: 52.3%
- viability, T/C [11]: 34.6%
- viability, T/C [12]: 68.3%
- viability, T/C [13]: 68.7%
- viability, T/C [14]: 67.9%
- viability, T/C [15]: 57.6%
- viability, T/C [16]: 52.9%
- viability, T/C [17]: 40.6%
- viability, T/C [18]: 53.1%
- viability, T/C [19]: 53.6%
- viability, T/C [20]: 46.6%
- viability, T/C [21]: 40.1%
- viability, T/C [22]: 32%
- viability, T/C [23]: 38.5%
- viability, T/C [24]: 55.3%
- viability, T/C [25]: 53.2%
- viability, T/C [26]: 45.2%
- viability, T/C [27]: 40.5%
- viability, T/C [28]: 31.8%
- viability, T/C [29]: 31.7%
- viability, T/C [30]: 54.2%
- viability, T/C [31]: 51%
- viability, T/C [32]: 43.9%
- viability, T/C [33]: 37.6%
- viability, T/C [34]: 18.6%
- viability, T/C [35]: 8.14%

SMILES: COc1cc(C)[nH]c(=O)c1CN1CCc2c(Cl)cc(C(OC)C3COC3)c(Cl)c2C1=O (stereo unspecified)
- viability, T/C (compound 0.0316 µM): 109% and 91.5% and 89.8%
- viability, T/C (compound 0.1 µM): 100% and 89.6% and 97%
- viability, T/C (compound 0.316 µM): 95.5% and 80.1% and 98.1%
- viability, T/C (compound 1 µM): 89.2% and 76.7% and 91.4%
- viability, T/C (compound 3.16 µM): 96.1% and 84.8% and 85.8%
- viability, T/C (compound 10 µM): 92.2% and 75.5% and 90.1%
- IC50 (curve of compound): > 10000 nM

SMILES: CC(C)n1c(=O)n(C)c2cnc3cc(F)c(-c4ccc(OCCCN5CCCCC5)nc4)cc3c21 + CC[C@@]1(O)C(=O)OCc2c1cc1n(c2=O)Cc2cc3c(CN(C)C)c(O)ccc3nc2-1
- IC50 [1]: 5160 nM
- IC50 [2]: 157 nM
- IC50 [3]: < 31.6 nM
- IC50 [4]: < 31.6 nM
- IC50 [5]: < 31.6 nM
- viability, T/C [6]: 85%
- viability, T/C [7]: 94.2%
- viability, T/C [8]: 76.9%
- viability, T/C [9]: 80.6%
- viability, T/C [10]: 68.2%
- viability, T/C [11]: 26.9%
- viability, T/C [12]: 51.9%
- viability, T/C [13]: 52.9%
- viability, T/C [14]: 48.2%
- viability, T/C [15]: 40.6%
- viability, T/C [16]: 33%
- viability, T/C [17]: 14.1%
- viability, T/C [18]: 46.5%
- viability, T/C [19]: 42.1%
- viability, T/C [20]: 37.3%
- viability, T/C [21]: 29.7%
- viability, T/C [22]: 30.6%
- viability, T/C [23]: 14.2%
- viability, T/C [24]: 38.6%
- viability, T/C [25]: 36.4%
- viability, T/C [26]: 30.2%
- viability, T/C [27]: 28.6%
- viability, T/C [28]: 27.2%
- viability, T/C [29]: 15.3%
- viability, T/C [30]: 44.3%
- viability, T/C [31]: 42.7%
- viability, T/C [32]: 39%
- viability, T/C [33]: 34.5%
- viability, T/C [34]: 27.7%
- viability, T/C [35]: 14.7%
